Laboratory results: patent publication US5741811A, “Polythiophene anti-tumor agents” (Purdue Research Foundation, priority 1996, dated 1998)
Like-named read-outs stand apart in the source and are kept apart here.

What was measured:
Experiment in all cases: NCI human tumor cell line panel growth inhibition
Format in all cases: cell-based
[1] = test system: HCT-15 colon cancer cells; conditions: Homo sapiens, read-out: Log10 GI50 (converted)
[2] = test system: HCT-116 colon cancer cells; conditions: Homo sapiens, read-out: Log10 GI50 (converted)
[3] = test system: T-47D breast cancer cells; conditions: T47D, read-out: Log10 GI50 (converted)
Method: The assay was carried out in 96-well microtiter plates. The MTT assay is based on the production of a dark blue formazan product by dehydrogenase in the mitochondria of live tumor cells after exposure to drug for 6 days [M. C. […] The SRB assay is based on the binding of the anionic group to the basic amino acid residues of cellular proteins after exposure of tumor cells to drug for 2 days [P. Skehan, R. Storeng, D. Scudiero, A. Monks, J. McMahon, D. Vistica, J. T. Warren, H. Bohesch, S. Kenney and M. R. Boyd, J. Nat.

[4] = test system: NCI-H322M lung cancer cells; conditions: Homo sapiens, read-out: Log10 GI50 (converted)
MCF7 breast cancer cells = conditions: read-out: Log10 GI50 (converted)
Source text: (§1) The cytotoxic activity of the present polythiophene compounds have been measured utilizing three different assays or screens. The first screen measures the cytotoxicity against a panel of sixty different human tumor cell lines. This assay provides data regarding the general cytotoxicity of an individual compound. In particular this type of assay is useful in identifying compounds which have enhanced cytotoxic activity against slow growing tumors as compared to faster growing tumor cells such as leukemia tumor cell lines. The identification of such compounds is critical since previously identified antitumor agents have low cytotoxic activity against slower growing tumors. […] The specificity of a cytotoxic compound for tumor cell lines relative to normal cells is an important characteristic of an effective antitumor agent.
(§2) The length of a bar is indicative of differential cytotoxicity against a specific type of tumor cells or tumor panels.
(§3) The antitumor cytotoxicity of the thiophene compounds tested in the first two in vitro assays was measured by a microculture assay using either 3-(4,5-dimethylthiazol-2-yl)-2,5-diphenyltetrazolium bromide (MTT) or sulforhodamine B (SRB). [M. R. Boyd in "Principles and Practices of Oncology," V. T. DeVita, Jr., S. Hellman and S. A. Rosenberg (Eds.), Vol. 3, PPO Updates, Number 10, 1989.] This assay has an advantage over in vivo assay in that results are obtained within a week as opposed to several months. The assay was carried out in 96-well microtiter plates. The MTT assay is based on the production of a dark blue formazan product by dehydrogenase in the mitochondria of live tumor cells after exposure to drug for 6 days [M. C. Alley, D. A. Scudiero, A. Monks, M. L. Hursey, M. J. Czerwinski, D. L. Fine, B. J. Abbott, J. G. Mayo, R. H. Shoemaker and M. R. Boyd, Cancer Res., 48, 589, 1988.] Thus, only live cells are stained and can be measured at 570 nm. The SRB assay is based on the binding of the anionic group to the basic amino acid residues of cellular proteins after exposure of tumor cells to drug for 2 days [P. Skehan, R. Storeng, D. Scudiero, A. Monks, J. McMahon, D. Vistica, J. T. Warren, H. Bohesch, S. Kenney and M. R. Boyd, J. Nat. Cancer Inst., 82, 1107, 1990.] Thus, the total protein (viability) can be measured at 564 nm.

[5] = test system: MDA-N breast cancer cells; conditions: read-out: Log10 GI50 (converted)
Source text: as §1, §2, §3

HOP-92 lung cancer cells = conditions: Homo sapiens, read-out: Log10 GI50 (converted)
Source text: as §1, §2, §3

KM12 colon cancer cells = conditions: Homo sapiens, read-out: Log10 GI50 (converted)
Source text: as §1, §2, §3

[6] = test system: PC-3 prostate cancer cells; conditions: read-out: Log10 GI50 (converted)
Source text: as §1, §2, §3

[7] = test system: MDA-MB-231/ATCC breast cancer cells; conditions: read-out: Log10 GI50 (converted)
Source text: as §1, §2, §3

SK-MEL-5 melanoma cells = conditions: read-out: Log10 GI50 (converted)
Source text: as §1, §2, §3

[8] = test system: OVCAR-4 ovarian cancer cells; conditions: Homo sapiens, read-out: Log10 GI50 (converted)
Source text: as §1, §2, §3

SK-MEL-28 melanoma cells = conditions: read-out: Log10 GI50 (converted)
Source text: as §1, §2, §3

[9] = test system: DU-145 prostate cancer cells; conditions: read-out: Log10 GI50 (converted)
Source text: as §1, §2, §3

HOP-62 lung cancer cells = conditions: Homo sapiens, read-out: Log10 GI50 (converted)
SF-295 CNS cancer cells = conditions: read-out: Log10 GI50 (converted)
[10] = test system: RXF-393 renal cancer cells; conditions: Homo sapiens, read-out: Log10 GI50 (converted)
UACC-257 melanoma cells = conditions: Homo sapiens, read-out: Log10 GI50 (converted)
MALME-3M melanoma cells = conditions: read-out: Log10 GI50 (converted)
[11] = test system: NCI-H23 lung cancer cells; conditions: read-out: Log10 GI50 (converted)
[12] = test system: CAKI-1 renal cancer cells; conditions: Homo sapiens; CAKI-1, renal cancer; read-out: Log10 GI50 (converted)
[13] = test system: COLO-205 colon cancer cells; conditions: Homo sapiens
[14] = test system: NCI-H460 lung cancer cells; conditions: Homo sapiens, read-out: Log10 GI50 (converted)
SF-268 CNS cancer cells = conditions: read-out: Log10 GI50 (converted)
SNB-75 CNS cancer cells = conditions: Homo sapiens, read-out: Log10 GI50 (converted)
SNB-19 CNS cancer cells = conditions: Homo sapiens, read-out: Log10 GI50 (converted)
M-14 melanoma cells = conditions: M14, read-out: Log10 GI50 (converted)
A-498 renal cancer cells = conditions: Homo sapiens, A498, read-out: Log10 GI50 (converted)
TK-10 renal cancer cells = conditions: Homo sapiens, read-out: Log10 GI50 (converted)
[15] = test system: OVCAR-5 ovarian cancer cells; conditions: Homo sapiens, read-out: Log10 GI50 (converted)
U251 CNS cancer cells = conditions: Homo sapiens, U-251, read-out: Log10 GI50 (converted)
HT29 colon cancer cells = conditions: Homo sapiens, HT-29, read-out: Log10 GI50 (converted)
[16] = test system: IGROV-1 ovarian cancer cells; conditions: Homo sapiens, read-out: Log10 GI50 (converted)
786-0 renal cancer cells = conditions: read-out: Log10 GI50 (converted)
[17] = test system: HCC-2998 colon cancer cells; conditions: Homo sapiens, read-out: Log10 GI50 (converted)
[18] = test system: OVCAR-3 ovarian cancer cells; conditions: Homo sapiens; OVCAR-3, ovarian cancer; read-out: Log10 GI50 (converted)
[19] = test system: OVCAR-8 ovarian cancer cells; conditions: Homo sapiens, read-out: Log10 GI50 (converted)
Method: (§4) The first screen measures the cytotoxicity against a panel of sixty different human tumor cell lines. This assay provides data regarding the general cytotoxicity of an individual compound.
as §2, §3

[20] = test system: SW-620 colon cancer cells; conditions: Homo sapiens, read-out: Log10 GI50 (converted)
Method: as §4, §2, §3

UACC-62 melanoma cells = conditions: Homo sapiens, read-out: Log10 GI50 (converted)
[21] = test system: HS 578T breast cancer cells; conditions: read-out: Log10 GI50 (converted)
Source text: as §1, §2, §3

[22] = test system: MCF7/ADR-RES breast cancer cells; conditions: read-out: Log10 GI50 (converted)
Source text: as §1, §2, §3

[23] = test system: BT-549 breast cancer cells; conditions: read-out: Log10 GI50 (converted)
Source text: as §1, §2, §3

[24] = test system: MDA-MB-435 breast cancer cells; conditions: read-out: Log10 GI50 (converted)
Source text: as §1, §2, §3

SF-539 CNS cancer cells = conditions: read-out: Log10 GI50 (converted)
Source text: as §1, §2, §3

SK-MEL-2 melanoma cells = conditions: read-out: Log10 GI50 (converted)
ACHN renal cancer cells = conditions: read-out: Log10 GI50 (converted)
[25] = test system: NCI-H226 lung cancer cells; conditions: Homo sapiens, read-out: Log10 GI50 (converted)
LOX IMVI melanoma cells = conditions: read-out: Log10 GI50 (converted)

OCc1ccc(-c2ccc(-c3ccsc3)s2)s1 [drawing 37] gave a GI50 [1] of 58.9 µM, a GI50 [2] of 0.363 µM and a GI50 [3] of 0.339 µM. It also gave a GI50 [4] of 16.2 µM, a GI50 (MCF7 breast cancer cells) of 0.257 µM and a GI50 [5] of 0.501 µM. It also gave a GI50 (HOP-92 lung cancer cells) of 38.9 µM, a GI50 (KM12 colon cancer cells) of 83.2 µM and a GI50 [6] of 51.3 µM. For the same molecule, the GI50 [7] was 28.2 µM, the GI50 (SK-MEL-5 melanoma cells) was 41.7 µM and the GI50 [8] was 25.1 µM. For the same molecule, the GI50 (SK-MEL-28 melanoma cells) was 36.3 µM, the GI50 [9] was 66.1 µM and the GI50 (HOP-62 lung cancer cells) was 20.4 µM. The GI50 (SF-295 CNS cancer cells) was 35.5 µM, the GI50 [10] was 20.4 µM and the GI50 (UACC-257 melanoma cells) was 0.191 µM. The GI50 (MALME-3M melanoma cells) was 38.9 µM, the GI50 [11] was 24 µM and the GI50 [12] was 0.0229 µM. It also gave a GI50 ([13]; COLO 205, read-out: Log10 GI50 (converted)) of 0.912 µM, a GI50 [14] of 25.1 µM and a GI50 (SF-268 CNS cancer cells) of 53.7 µM. The GI50 (SNB-75 CNS cancer cells) was 30.9 µM, the GI50 (SNB-19 CNS cancer cells) was 33.1 µM and the GI50 (M-14 melanoma cells) was 42.7 µM. The GI50 (A-498 renal cancer cells) was 0.115 µM, the GI50 (TK-10 renal cancer cells) was 0.204 µM and the GI50 [15] was 0.417 µM. The GI50 (U251 CNS cancer cells) was 10.7 µM, the GI50 (HT29 colon cancer cells) was 13.8 µM and the GI50 [16] was 0.219 µM. It also gave a GI50 (786-0 renal cancer cells) of 57.5 µM, a GI50 [17] of 0.977 µM and a GI50 [18] of 0.158 µM. The GI50 [19] was 57.5 µM and the GI50 [20] was 47.9 µM.

OCc1csc(-c2ccc(-c3ccc(CO)s3)s2)c1 [drawing 38] was tested, and the GI50 [1] was over 10 µM, the GI50 [2] was 0.107 µM and the GI50 [3] was 0.224 µM. The GI50 (UACC-62 melanoma cells) was 0.182 µM, the GI50 [4] was 4.27 µM and the GI50 [21] was 7.76 µM. For the same molecule, the GI50 (MCF7 breast cancer cells) was 0.138 µM, the GI50 [5] was 9.55 µM and the GI50 [22] was over 10 µM. The GI50 (HOP-92 lung cancer cells) was 9.33 µM, the GI50 (KM12 colon cancer cells) was over 10 µM and the GI50 [23] was over 10 µM. It also gave a GI50 [24] of 4.37 µM, a GI50 [6] of over 10 µM and a GI50 [7] of over 10 µM. For the same molecule, the GI50 (SK-MEL-5 melanoma cells) was over 10 µM, the GI50 (SF-539 CNS cancer cells) was over 10 µM and the GI50 [8] was 0.302 µM. It also gave a GI50 (SK-MEL-28 melanoma cells) of over 10 µM, a GI50 [9] of over 10 µM and a GI50 (SF-295 CNS cancer cells) of over 10 µM. The GI50 [10] was over 10 µM, the GI50 (SK-MEL-2 melanoma cells) was over 10 µM and the GI50 (UACC-257 melanoma cells) was 0.038 µM. The GI50 (MALME-3M melanoma cells) was over 10 µM, the GI50 (ACHN renal cancer cells) was over 10 µM and the GI50 [11] was over 10 µM. The GI50 [12] was 0.0251 µM, the GI50 ([13]; COLO-205, colon cancer, read-out: Log10 GI50 (converted)) was 0.191 µM and the GI50 [14] was 0.0389 µM. For the same molecule, the GI50 (SF-268 CNS cancer cells) was over 10 µM, the GI50 (SNB-75 CNS cancer cells) was 2 µM and the GI50 (SNB-19 CNS cancer cells) was over 10 µM. For the same molecule, the GI50 (M-14 melanoma cells) was over 10 µM, the GI50 (A-498 renal cancer cells) was 0.0158 µM and the GI50 (TK-10 renal cancer cells) was 0.0794 µM. For the same molecule, the GI50 [15] was 0.126 µM, the GI50 (U251 CNS cancer cells) was 5.62 µM and the GI50 (HT29 colon cancer cells) was 0.234 µM. The GI50 [16] was 0.145 µM, the GI50 [25] was 0.0141 µM and the GI50 [17] was 5.89 µM. The GI50 (LOX IMVI melanoma cells) was over 10 µM, the GI50 [18] was 0.0692 µM and the GI50 [19] was over 10 µM.
